Among the data in patent publication US9249112B2, “Solid forms of a transthyretin dissociation inhibitor” (PFIZER INC., priority 2011, dated 2016) are solubility, gel formation and hygroscopicity values, retold here.

Assay type in all cases: physicochemical
Series [1] is described as follows: solubility in unbuffered water. The following applies: free acid.
The nature of series [2]: gel formation on contact with aqueous vehicles. To be noted: compound alone, on contact with aqueous vehicles such as water, phosphate buffer and hydrochloric acid. An excerpt:
Without wishing to be bound by theory, it appears that such gel formation, upon oral administration, can hinder dissolution and/or bioavailability of such compounds, leading to, for example, stomach compaction and non-proportional plasma levels of drug in the subject as compared to the dose administered. […] Consequently, the pharmaceutical compositions herein are also contemplated for use in or further combination with any conventional formulation or route or method of administration where contact with water or other aqueous vehicles may occur, e.g., contact with blood or other body fluids as in various forms of parenteral administration (e.g., contact with blood in intravenous administration, implants, and the like), contact with mucous membranes (e.g., suppositories via vaginal or rectal administration, dry powder aerosols for pulmonary administration, transdermal patches or lozenges applied to mucous membranes, and the like). In such routes of administration, the benefits of the certain pharmaceutical compositions, such as resistance to gel formation, greater dissolution and bioavailability, dose proportionality, stability to storage, or the like may be beneficial.

A short description of series [3]: hygroscopicity of the solid form. The following applies: crystalline form, anhydrous mono-meglumine salt.

Some results are limits rather than exact numbers.

The solubility is the dissolved amount per volume that the medium holds. Low values mean a poorly soluble substance, high ones a readily soluble substance.

On to `O=C(O)c1ccc2nc(-c3cc(Cl)cc(Cl)c3)oc2c1` [free acid, 6-carboxy-2-(3,5-dichlorophenyl)-benzoxazole], for which the solubility in series [1] is < 11 µg/mL. Besides, the gel formation result in series [2] is given as “can form a gel”.

In the case of “6-carboxy-2-(3,5-dichlorophenyl)-benzoxazole meglumine [Compound 1]”, in series [3], the hygroscopicity entry was “non-hygroscopic”.
